Data from patent US20200289521A1, “USE OF VITAMIN K IN COMBINATION WITH ANTICOAGULANTS” (KAYDENCE PHARMA AS, priority 2019, published 2020).

What was measured:
VSMCs = test: ATP increase in VSMCs, 48 hours, with CoCl2 arm (luminescence); assay type: cell-based
Procedure: This study was performed to further investigate the origin of ATP production that is influenced by vitamin K2 (MK-7). To perform this study, VSCMs (5000 cells/well) were plated in 96-well plates and left to adhere overnight. Next, cells were incubated for 48 hours with either vehicle, CoCl2 (100 μM), vitamin K2 (MK-7) (10 μM), or UQ10 (10 μM). Hoechst was added to correct for cell number (1 μg/mL). Next, ATP was measured using mammalian lysis buffer for 5 minutes, after which 50 μL ATP substrate solution was added to the wells and incubated for 10 minutes in a dark environment. Finally, medium was transferred to a white plate to measure luminescence.

[1] = system: whole-blood thrombogenicity; test: T-TAS Total Thrombus-formation Analysis of whole blood from treated TGR rats; assay type: in vivo, transgenic Ren-2 rats [TGR(mREN-2)27]
Procedure: This experiment was conducted in order to evaluate the effects of vitamin K2 (MK-7) on the anticoagulant activity of the new oral anticoagulants (NOAC) rivaroxaban and dabigatran using the T-TAS Total Thrombus-formation Analysis System. The T-TAS Total Thrombus-formation Analysis System is a microchip-based flow chamber system capable of evaluating whole-blood thrombogenicity. It is a useful tool in monitoring the efficacy of anticoagulants on thrombus formation and predicting the risk of bleeding complications. To perform the study, 45 wild-type male Sprague-Dawley and 45 transgenic male Ren-2 rats [TGR(mREN-2)27] at the age of 10-11 weeks at the beginning of the treatment period were purchased from animal facility IKEM-CEM Institute of Clinical and Experimental Medicine (Prague, Czech Republic). All animals in the experiment were housed in individually ventilated cages (2-3 rats per cage) and kept in the animal rooms of JCET at a relative humidity of 55±10%, a temperature of 22±2° C., and a light cycle of 7 AM to 7 PM. The rats had free access to food and water. After delivery, animals were randomly divided into 10 experimental groups (5 or 10 rats per group), as indicated below in Table 1. Four days before the start of the treatment, the first part of animals' body weight and food intake was measured in selected representative three cages (rats n=9) to calculate the appropriate amount of tested compounds required for addition to the diet to obtain the dosing indicated in Table 1. It was estimated that food intake was approximately 30 g of chow per rat per day. The animals were fed for two weeks with AIN-93G diet supplemented with rivaroxaban or dabigatran with/without Vitamin K2 (MK-7), as indicated in Table 1. The animals were then anesthetized in order to draw blood samples for further analysis. The body mass of the rats was measured at the beginning and at the end of treatment. At the beginning and at the end of treatment, the food intake per day was measured in representative group of animals to monitor the daily dosing of tested compounds (per kg of body mass). The thrombus formation in vitro was measured in whole blood using a microchip-based flow chamber system according to manufacturers' protocol (Total Thrombus-formation Analyser System, T-TAS; Fujimori Kogyo Co., Ltd., Tokyo, Japan). For the analysis, citrated whole blood (480 μl) was mixed with 20 μl of 300 mM CaCl2 solution containing 1.25 mg/ml CTI (Corn Trypsin Inhibitor). […] The obtained flow pressure pattern for each sample was used to analyze thrombus formation based on the following estimated parameters: […]

## CC(C)=CCC/C(C)=C/CC/C(C)=C/CC/C(C)=C/CC/C(C)=C/CC/C(C)=C/CC/C(C)=C/CC1=C(C)C(=O)c2ccccc2C1=O [vitamin K2 (MK-7)]
VSMCs; 10 μM vs CoCl2 100 μM
  ATP levels compared to CoCl2: significant higher ATP levels
VSMCs; CoCl2 100 μM, vitamin K2 (MK-7) 10 μM
  ATP production compared to vehicle: increased ATP production slightly, though significant
[1]
  effect of vitamin K2 (MK-7) on inhibition of thrombus formation by dabigatran and rivaroxaban: did not modify this effect significantly
